This is an account of results in patent US20060116368A1, “4-Piperidinecarboxamide modulators of vanilloid VR1 receptor” (priority 2004, published 2006).

The target of one experiment is T1, hVR1 receptors (Homo sapiens, UniProt Q8NER1).
T1 construct: expressed in transfected cells; host or cells: HEK293
Nature of the experiment: Human VR1 binding assay ([3H]RTX). The settings on record: [3H]RTX binding; membranes of HEK293 cells transfected with human VR1. As for the experimental part: Compounds of the present invention were tested for their ability to inhibit the binding of [^3H] RTX to hVR1 receptors in a [^3H] RTX binding assay as previously described (Zhang, Sui-Po. Improved ligand binding assays for vanilloid receptors. PCT Int. Appl. (2002), WO 0233411 A1 20020425 AN 2002:315209, and Grant, Elfrida R., Dubin, Adrienne E., Zhang, Sui-Po, Zivin, Robert A., Zhong, Zhong Simultaneous intracellular calcium and sodium flux imaging in human vanilloid receptor 1 (VR1)-transfected human embryonic kidney cells: a method to resolve ionic dependence of VR1-mediated cell death. J. Pharmacol. Exp. Ther., 2002, 300(1), 9-17.)
HEK293 cells were transfected with human VR1 vanilloid receptors and washed with Hank's balanced Salt Solution, dissociated with cell dissociation buffer (Sigma), and then centrifuged at 1000×g for 5 min. Cell pellets were homogenized in cold 20 mM HEPES buffer, pH 7.4, containing 5.8 mM NaCl, 320 mM sucrose, 2 mM MgCl2, 0.75 CaCl2 and 5 mM KCl and centrifuged at 1000×g for 15 min. The resultant supernate was then centrifuged at 40000×g for 15 min. The pelleted membranes were stored in a freezer at −80° C.
Approximately 120 μg protein/ml from membranes were incubated with indicated concentrations of [^3H]RTX in 0.5 ml of the HEPES buffer (pH 7.4) containing 0.25 mg/mL fatty acid-free bovine serum albumin at 37° C. for 60 min. The reaction mixture was then cooled to 4° C., added 0.1 mg α1-acid glycoprotein to each sample and incubated at 4° C. for 15 min. The samples were centrifuged at 18500×g for 15 min. The tip of the microcentrifuge tube containing the pellet was cut off. Bound radioactivity was quantified by scintillation counting. Non-specific binding was tested in the presence of 200 nM unlabeled RTX.
Data were calculated according to the equation: % inhibition=(total binding−binding)*100/(total binding−non specific binding). Ki values were calculated using a Prism program.

Experiment [1] has as its target T2, Human Vanilloid Receptor 1 (Homo sapiens, UniProt Q8NER1).
T2 construct: expressed in transfected cells; host or cells: HEK 293
Nature of the experiment: Human VR1 functional assay using FLIPR, Protocol 1. The format is cell-based. The settings on record: for inhibition at 9 µM: HEK293, 9 uM, inhibition of capsaicin (EC80)-induced calcium response, HEK 293 cells transfected with hVR1, read-out: h % I (9 uM); for IC50: decreased capsaicin (EC80)-induced calcium response, HEK 293 hVR1, read-out: h IC50. The procedure, abridged:
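Transfected HEK 293 cells, plated 24 h before, were dye-loaded (30 min 37 °C, 30 min RT) and read by FLIPR calcium assay. Compound added with 5 min acquisition, then capsaicin at EC80. EC50 from compound-induced calcium at 5 min; IC50 from reduced capsaicin-induced response.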

Experiment [2] concerns the target T2, Human Vanilloid Receptor 1. Nature of the experiment: Human VR1 functional assay using FLIPR, Protocol 2. The format is cell-based. The settings on record: for h % I (1 uM): inhibition of capsaicin (EC80)-induced calcium response; for h % I (1 uM) / % E80 Capsaicin (1.2 uM): HEK 293 stably transfected hVR1; for IC50: decreased capsaicin (EC80)-induced calcium response, HEK 293 stably transfected hVR1, read-out: h IC50; for % E80 Capsaicin (1.2 uM): test compound-induced calcium response (agonist mode). The method, then:
The functional activity of the test compounds was determined by measuring changes in intracellular calcium concentration using FLIPR™ Calcium-3 Assay Kit and FLIPR™ technology.
HEK 293 cells stably transfected with Human Vanilloid Receptor 1 were maintained at 37° C. and 5% CO2 in: Dulbecco's Modification of Eagle's Medium (4.5 g/L glucose, L-glutamine, sodium pyruvate), 10% FBS, 1× Penicillin-Streptomycin, 400 ug/mL G418 Sulfate. Approximately 24 hours prior to assay, 5,000 cells/well were plated onto a 384-well black clear bottom poly-D-lysine-coated assay plate with a well volume of 25 μL using Titertek Multidrop.
On the day of the assay, the medium was dumped and 50 μL of dye (bulk kit vials diluted with 200 mL buffer) was loaded using Multidrop. Plates were incubated with dye at 37° C. for 30 minutes followed by 30 minutes incubation at room temperature. Then the plates were assayed by FLIPR™ with 2 additions: 12.5 μL test compound with 5 minutes data acquisition followed by 12.5 μL capsaicin at the EC80 concentration.
The EC50 values of test compounds were calculated based on a test compound-induced calcium response at the 5-minute time point. The IC50 values of compounds were calculated based on a decreased capsaicin-induced calcium response in the presence of test compound.

T2 sequence (Q8NER1 whole entry): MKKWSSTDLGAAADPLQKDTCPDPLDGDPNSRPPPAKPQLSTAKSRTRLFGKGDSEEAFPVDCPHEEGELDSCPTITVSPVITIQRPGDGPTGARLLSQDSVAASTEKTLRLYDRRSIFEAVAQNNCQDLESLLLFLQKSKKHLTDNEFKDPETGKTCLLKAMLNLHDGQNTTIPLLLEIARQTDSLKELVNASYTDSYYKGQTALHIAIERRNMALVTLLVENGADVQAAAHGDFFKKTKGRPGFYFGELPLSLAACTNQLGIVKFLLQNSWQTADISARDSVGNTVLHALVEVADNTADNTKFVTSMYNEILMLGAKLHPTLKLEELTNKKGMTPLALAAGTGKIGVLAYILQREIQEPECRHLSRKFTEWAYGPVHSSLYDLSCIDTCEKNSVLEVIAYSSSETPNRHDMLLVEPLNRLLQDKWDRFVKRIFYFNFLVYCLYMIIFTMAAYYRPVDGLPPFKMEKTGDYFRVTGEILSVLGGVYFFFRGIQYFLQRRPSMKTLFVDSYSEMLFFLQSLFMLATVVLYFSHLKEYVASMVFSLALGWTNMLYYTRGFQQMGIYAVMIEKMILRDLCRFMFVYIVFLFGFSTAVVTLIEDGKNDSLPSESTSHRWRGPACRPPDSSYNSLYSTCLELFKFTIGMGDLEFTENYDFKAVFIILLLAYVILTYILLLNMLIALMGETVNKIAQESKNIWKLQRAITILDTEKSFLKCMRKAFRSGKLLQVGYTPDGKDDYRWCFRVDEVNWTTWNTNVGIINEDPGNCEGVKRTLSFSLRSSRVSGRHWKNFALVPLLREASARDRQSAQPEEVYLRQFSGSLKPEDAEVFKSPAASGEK
T1 sequence (Q8NER1 whole entry): as above

The compound `O=C1COc2ccc(NC(=O)C3CCN(c4cccc(F)c4)CC3)cc2N1` [Example 147, 1-(3-Fluoro-phenyl)-piperidine-4-carboxylic acid (3-oxo-3,4-dihydro-2H-benzo[1,4]oxazin-6-yl)-amide] gave a Ki on hVR1 receptors of 84 nM. Besides, in experiment [1], the inhibition at 9 µM was 90% and the half-inhibitory concentration (IC50) worked out at 520 nM.
On the same counts, the results for `O=C1COc2ccc(NC(=O)C3CCN(c4cccc(Cl)c4)CC3)cc2N1` [Example 148, 1-(3-Chloro-phenyl)-piperidine-4-carboxylic acid (3-oxo-3,4-dihydro-2H-benzo[1,4]oxazin-6-yl)-amide] are 34 nM, 88.7% and 190 nM.
On the same counts, the results for `O=C1COc2ccc(NC(=O)C3CCN(c4ccccc4F)CC3)cc2N1` [Example 151, 1-(2-Fluoro-phenyl)-piperidine-4-carboxylic acid (3-oxo-3,4-dihydro-2H-benzo[1,4]oxazin-6-yl)-amide] are 1470 nM, 62.3% and 670 nM.
The compound `O=C1COc2ccc(NC(=O)C3CCN(c4ccccc4Cl)CC3)cc2N1` [Example 152, 1-(2-Chloro-phenyl)-piperidine-4-carboxylic acid (3-oxo-3,4-dihydro-2H-benzo[1,4]oxazin-6-yl)-amide] yielded a Ki at hVR1 receptors of 93 nM. In addition, in experiment [1], the inhibition at 9 µM came out at 90.7% and the half-maximal inhibitory concentration (IC50) was found to be 220 nM.
On the same counts, the results for `O=C1COc2ccc(NC(=O)C3CCN(c4ccccc4Br)CC3)cc2N1` [Example 153, 1-(2-Bromo-phenyl)-piperidine-4-carboxylic acid (3-oxo-3,4-dihydro-2H-benzo[1,4]oxazin-6-yl)-amide] are 71 nM, 91.7% and 160 nM.
For `O=C1COc2ccc(NC(=O)C3CCN(c4cc(F)cc(F)c4)CC3)cc2N1` [Example 154, 1-(3,5-Difluoro-phenyl)-piperidine-4-carboxylic acid (3-oxo-3,4-dihydro-2H-benzo[1,4]oxazin-6-yl)-amide], in that order: 137 nM, 96% and 370 nM.
On the same counts, the results for `O=C1COc2ccc(NC(=O)C3CCN(c4ccc(F)c(F)c4)CC3)cc2N1` [Example 155, 1-(3,4-Difluoro-phenyl)-piperidine-4-carboxylic acid (3-oxo-3,4-dihydro-2H-benzo[1,4]oxazin-6-yl)-amide] are 56 nM, 89% and 850 nM.
For `O=C1COc2cccc(NC(=O)C3CCN(c4cc(F)c(F)c(F)c4)CC3)c2N1` [Example 169, 1-(3,4,5-Trifluoro-phenyl)-piperidine-4-carboxylic acid (3-oxo-3,4-dihydro-2H-benzo[1,4]oxazin-5-yl)-amide], the “h % I (1 uM)” value in experiment [2] is 9%.
`O=C1COc2cc(NC(=O)C3CCN(c4cc(F)c(F)c(F)c4)CC3)ccc2N1` [Example 170, 1-(3,4,5-Trifluoro-phenyl)-piperidine-4-carboxylic acid (3-oxo-3,4-dihydro-2H-benzo[1,4]oxazin-7-yl)-amide]: in experiment [2], the “h % I (1 uM)” value was determined as 55% and the IC50 was determined as 735 nM.
Consider `O=C1COc2c(cccc2NC(=O)C2CCN(c3cc(F)c(F)c(F)c3)CC2)N1` [Example 171, 1-(3,4,5-Trifluoro-phenyl)-piperidine-4-carboxylic acid (3-oxo-3,4-dihydro-2H-benzo[1,4]oxazin-8-yl)-amide], for which the “% E80 Capsaicin (1.2 uM)” value in experiment [2] came out at 17%.
Still for that read-out and setting: for `CN1C(=O)COc2ccc(NC(=O)C3CCN(c4cc(F)c(F)c(F)c4)CC3)cc21` [Example 172, 1-(3,4,5-Trifluoro-phenyl)-piperidine-4-carboxylic acid (4-methyl-3-oxo-3,4-dihydro-2H-benzo[1,4]oxazin-6-yl)-amide] the value was 39%.
Take `O=C1CSc2ccc(NC(=O)C3CCN(c4cc(F)c(F)c(F)c4)CC3)cc2N1` [Example 173, 1-(3,4,5-Trifluoro-phenyl)-piperidine-4-carboxylic acid (3-oxo-3,4-dihydro-2H-benzo[1,4]thiazin-6-yl)-amide]: in experiment [2], the “h % I (1 uM)” value is 37% and the half-maximal inhibitory concentration (IC50) was 1960 nM.
For `O=C(Nc1ccc2c(c1)NC(=O)C(CCO)O2)C1CCN(c2cc(F)c(F)c(F)c2)CC1` (centres unmarked) [Example 174, 1-(3,4,5-Trifluoro-phenyl)-piperidine-4-carboxylic acid [2-(2-hydroxy-ethyl)-3-oxo-3,4-dihydro-2H-benzo[1,4]oxazin-6-yl]-amide], in that order: 99% and 4.8 nM.
For `CCOC(=O)C1(C)Oc2ccc(NC(=O)C3CCN(c4cc(F)c(F)c(F)c4)CC3)cc2NC1=O` (centres unmarked) [Example 175, 2-Methyl-3-oxo-6-{[1-(3,4,5-trifluoro-phenyl)-piperidine-4-carbonyl]-amino}-3,4-dihydro-2H-benzo[1,4]oxazine-2-carboxylic acid ethyl ester], in that order: 54% and 873 nM.
For `CC1(C(=O)O)Oc2ccc(NC(=O)C3CCN(c4cc(F)c(F)c(F)c4)CC3)cc2NC1=O` (centres unmarked) [Example 176, 2-Methyl-3-oxo-6-{[1-(3,4,5-trifluoro-phenyl)-piperidine-4-carbonyl]-amino}-3,4-dihydro-2H-benzo[1,4]oxazine-2-carboxylic acid], the “% E80 Capsaicin (1.2 uM)” value in experiment [2] is 116%.
Still for that read-out and setting: for `CCOC(=O)C1Oc2ccc(NC(=O)C3CCN(c4cc(F)c(F)c(F)c4)CC3)cc2NC1=O` (centres unmarked) [Example 177, 3-Oxo-6-{[1-(3,4,5-trifluoro-phenyl)-piperidine-4-carbonyl]-amino}-3,4-dihydro-2H-benzo[1,4]oxazine-2-carboxylic acid ethyl ester] the value was 13%; for `O=C(Nc1ccc2c(c1)NC(=O)C(C(=O)O)O2)C1CCN(c2cc(F)c(F)c(F)c2)CC1` (centres unmarked) [Example 178, 3-Oxo-6-{[1-(3,4,5-trifluoro-phenyl)-piperidine-4-carbonyl]-amino}-3,4-dihydro-2H-benzo[1,4]oxazine-2-carboxylic acid], 80%.
Regarding `COC(=O)CC1Oc2ccc(NC(=O)C3CCN(c4cc(F)c(F)c(F)c4)CC3)cc2NC1=O` (centres unmarked) [Example 179, (3-Oxo-6-{[1-(3,4,5-trifluoro-phenyl)-piperidine-4-carbonyl]-amino}-3,4-dihydro-2H-benzo[1,4]oxazin-2-yl)-acetic acid methyl ester], in experiment [2], the “h % I (1 uM)” value came to 54% and the 50% inhibitory concentration (IC50) is 890 nM.
With `O=C(O)CC1Oc2ccc(NC(=O)C3CCN(c4cc(F)c(F)c(F)c4)CC3)cc2NC1=O` (centres unmarked) [Example 180, (3-Oxo-6-{[1-(3,4,5-trifluoro-phenyl)-piperidine-4-carbonyl]-amino}-3,4-dihydro-2H-benzo[1,4]oxazin-2-yl)-acetic acid], the “h % I (1 uM)” value in experiment [2] is given as 5%.

As a reminder, the Ki is the dissociation constant of the complex between target and ligand, obtained from inhibition or displacement. A lower Ki goes with a stronger hold on the target. As usually defined, the IC50 is the concentration at which inhibition is half-maximal.
